Assay results: patent US20250197377A1, “NOVEL PHARMACEUTICAL SALTS AND POLYMORPHIC FORMS OF AN ERBB AND BTK INHIBITOR” (DIZAL (JIANGSU) PHARMACEUTICAL CO., LTD., priority 2021, published 2025)
In brackets after ≈: the same amount, converted by molar mass. Several values for one entry are separate records, joined by “and”; a condition that tells them apart may be missing. Identical values can stand only once.

Tests used:
[1] = test system: PC-9; assay: In vitro cell based assay, anti-proliferation GI50, PC-9; settings: EGFR 19Del
[2] = Water activity study of Form A and Form B (slurry, XRPD); assay type: physicochemical; settings: 24~27° C. (before dry)
Experimental: To study the effects of water on the stability of Form A and Form B, slurry experiments in the systems with different water activity were carried out. Form A or Form B was suspended separately in different water activity systems (Table 4). […] Residual solids were filtered and then dried in the vacuum oven at 45° C. for 8-24 hours. Dry solids were characterized by XRPD.

[3] = target: T1, EGFR H773_V774insNPH (Homo sapiens, UniProt P00533, INS773NPH); assay: In vitro cell based assay, PD IC50, Ba/F3_NPH
T1 construct: expressed in transfected cells; host or cells: Ba/F3 (Ba/F3_NPH)

[4] = Stability in storage for Form B (XRPD, DSC); assay type: physicochemical; settings: stored at 2-8° C. for at least 20 d
[5] = test system: 3T3_YVMA; assay: In vitro cell based assay, anti-proliferation GI50, 3T3_YVMA; settings: HER2 A775_G776insYVMA
[6] = target: T2, EGFR L858R/T790M (Homo sapiens, UniProt P00533, L858R/T790M); assay: In vitro cell based assay, PD IC50, NCI-H1975
T2 construct: Form A and B in vitro cell based assay; endogenous in cells; host or cells: NCI-H1975

[7] = target: T3, EGFR Wildtype (Homo sapiens, UniProt P00533); assay: In vitro cell based assay, PD IC50, A431
T3 construct: Form A and B in vitro cell based assay; endogenous in cells; host or cells: A431

[8] = Milling study of Form B (grinding and jet milling); assay type: physicochemical
Experimental: Grinding and jet milling were carried out. About 10 mg Form B was added into mortar and grinded by pestle for 1 min and 2 min. Jet milling of Form B in 500 mg scale was performed. Samples before and after grinding and milling were analyzed by XRPD. • Instrument: Jet mill (Equipment number: PPD-OAJ-1) • Feeding speed: Manual • Feeding pressure: 0.3˜0.6 MPa • Milling One Pressure: 0.4˜0.8 MPa • Milling Two Pressure: 0.4˜0.8 MPa
Grinding and jet milling were carried out to test physical stability of Form B in the milling process. As shown in XRPD results of obtained solids after grinding (FIG. 25), jet milling (FIG. 24), and DSC profile after jet milling (FIG. 26), the crystallinity decreased after grinding, but the crystal form of Form B was unchanged after milling and grinding.

[9] = target: T4, HER2 A775_G776insYVMA (Homo sapiens, UniProt P04626, INS775YVMA); assay: In vitro cell based assay, PD IC50, 3T3_YVMA
T4 construct: expressed in transfected cells; host or cells: 3T3 (3T3_YVMA)

[10] = PK study of Form A and Form B in Rat; assay type: in vivo
[11] = test system: A431; assay: In vitro cell based assay, anti-proliferation GI50, A431; settings: EGFR Wildtype
[12] = Solubility in organic solvents and water; assay type: physicochemical; settings: r.t.
[13] = Form A and Form B inter-conversion study (competitive slurry, XRPD); assay type: physicochemical
Experimental: Competitive slurry experiments were conducted to evaluate the relative stability of Form A and Form B. Inter-conversion study was performed at room temperature and 50° C. using single and binary solvents listed in the Table 1 below. About 80 mg (100 mg for 50° C.) of Form A and Form B (1:1, w/w) was weighed into sample vials (8 mL) and then 3 mL (2 mL for 50° C.) of solvents were added to each vial. The obtained suspensions were kept stirring for 7 days at room temperature and 50° C., then filtered at specified time. The wet and dried solids were analyzed by XRPD (dried in vacuum oven at 45° C.).
Form B was dominant in tested solvent systems with water activity below 0.15 at room temperature (24˜27° C.). […] Pure Form A and Form B were stable during drying process (50° C., vacuum) for at least 2 days.

[14] = Dynamic moisture sorption analysis (DVS); assay type: physicochemical
Experimental: DVS was determined using DVS Advantage-1 or Intrinsic (SMS, UK). The sample was tested at a targeted RH of 10 to 90% full cycle in step mode. The analysis was performed in 10% RH increments. Equilibrium:60 min RH (%) measurement points: First cycle: 0, 10, 20, 30, 40, 50, 60, 70, 80, 90. Second cycle: 90, 80, 70, 60, 50, 40, 30, 20, 10, 0.

[15] = test system: NCI-H1975; assay: In vitro cell based assay, anti-proliferation GI50, NCI-H1975; settings: EGFR L858R/T790M
[16] = PK study of Form A and Form B in Dog; assay type: in vivo; settings: 10 mg/kg
[17] = target: T5, EGFR 19Del (Homo sapiens, UniProt P00533, DEL746-750); assay: In vitro cell based assay, PD IC50, PC-9
T5 construct: Form A and B in vitro cell based assay; endogenous in cells; host or cells: PC-9

[18] = Solubility in bio-relevant media; assay type: physicochemical; settings: for pH value at 24 h: solubility sample at 24 h
[19] = test system: Ba/F3_NPH; assay: In vitro cell based assay, anti-proliferation GI50, Ba/F3_NPH; settings: EGFR H773_V774insNPH

T5 sequence (P00533 with tags, fused parts or gaps DEL746-750): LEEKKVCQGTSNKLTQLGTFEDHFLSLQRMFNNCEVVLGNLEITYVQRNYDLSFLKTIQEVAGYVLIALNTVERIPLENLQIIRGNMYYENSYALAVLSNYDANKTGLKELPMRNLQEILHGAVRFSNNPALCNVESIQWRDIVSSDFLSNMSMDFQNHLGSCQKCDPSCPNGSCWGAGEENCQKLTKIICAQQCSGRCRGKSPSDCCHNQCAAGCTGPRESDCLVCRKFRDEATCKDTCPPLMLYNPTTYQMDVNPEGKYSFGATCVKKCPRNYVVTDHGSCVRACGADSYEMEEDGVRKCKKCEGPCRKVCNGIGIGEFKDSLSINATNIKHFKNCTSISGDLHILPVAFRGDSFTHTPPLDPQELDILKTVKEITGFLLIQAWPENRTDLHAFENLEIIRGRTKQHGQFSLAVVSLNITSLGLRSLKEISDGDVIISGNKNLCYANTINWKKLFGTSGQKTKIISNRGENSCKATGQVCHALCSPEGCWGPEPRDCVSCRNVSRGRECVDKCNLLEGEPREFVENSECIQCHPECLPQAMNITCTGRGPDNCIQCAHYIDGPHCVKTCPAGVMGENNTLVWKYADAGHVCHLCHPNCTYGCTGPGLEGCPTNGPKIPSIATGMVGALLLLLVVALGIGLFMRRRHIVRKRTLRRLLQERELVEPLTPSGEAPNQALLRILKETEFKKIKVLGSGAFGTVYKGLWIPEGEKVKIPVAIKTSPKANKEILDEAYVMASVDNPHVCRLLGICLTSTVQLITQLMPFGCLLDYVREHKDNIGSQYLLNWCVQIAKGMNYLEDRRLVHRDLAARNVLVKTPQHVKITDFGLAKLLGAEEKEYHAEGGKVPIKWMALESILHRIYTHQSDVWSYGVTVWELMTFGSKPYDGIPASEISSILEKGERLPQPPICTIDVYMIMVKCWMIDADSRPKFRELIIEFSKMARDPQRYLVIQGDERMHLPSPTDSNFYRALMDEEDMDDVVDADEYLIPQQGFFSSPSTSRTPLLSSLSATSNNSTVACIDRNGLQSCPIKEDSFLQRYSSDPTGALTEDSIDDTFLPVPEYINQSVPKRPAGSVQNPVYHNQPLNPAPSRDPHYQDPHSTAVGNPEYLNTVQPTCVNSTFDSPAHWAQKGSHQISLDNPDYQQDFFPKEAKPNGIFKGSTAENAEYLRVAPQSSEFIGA
T4 sequence (P04626 with tags, fused parts or gaps INS775YVMA): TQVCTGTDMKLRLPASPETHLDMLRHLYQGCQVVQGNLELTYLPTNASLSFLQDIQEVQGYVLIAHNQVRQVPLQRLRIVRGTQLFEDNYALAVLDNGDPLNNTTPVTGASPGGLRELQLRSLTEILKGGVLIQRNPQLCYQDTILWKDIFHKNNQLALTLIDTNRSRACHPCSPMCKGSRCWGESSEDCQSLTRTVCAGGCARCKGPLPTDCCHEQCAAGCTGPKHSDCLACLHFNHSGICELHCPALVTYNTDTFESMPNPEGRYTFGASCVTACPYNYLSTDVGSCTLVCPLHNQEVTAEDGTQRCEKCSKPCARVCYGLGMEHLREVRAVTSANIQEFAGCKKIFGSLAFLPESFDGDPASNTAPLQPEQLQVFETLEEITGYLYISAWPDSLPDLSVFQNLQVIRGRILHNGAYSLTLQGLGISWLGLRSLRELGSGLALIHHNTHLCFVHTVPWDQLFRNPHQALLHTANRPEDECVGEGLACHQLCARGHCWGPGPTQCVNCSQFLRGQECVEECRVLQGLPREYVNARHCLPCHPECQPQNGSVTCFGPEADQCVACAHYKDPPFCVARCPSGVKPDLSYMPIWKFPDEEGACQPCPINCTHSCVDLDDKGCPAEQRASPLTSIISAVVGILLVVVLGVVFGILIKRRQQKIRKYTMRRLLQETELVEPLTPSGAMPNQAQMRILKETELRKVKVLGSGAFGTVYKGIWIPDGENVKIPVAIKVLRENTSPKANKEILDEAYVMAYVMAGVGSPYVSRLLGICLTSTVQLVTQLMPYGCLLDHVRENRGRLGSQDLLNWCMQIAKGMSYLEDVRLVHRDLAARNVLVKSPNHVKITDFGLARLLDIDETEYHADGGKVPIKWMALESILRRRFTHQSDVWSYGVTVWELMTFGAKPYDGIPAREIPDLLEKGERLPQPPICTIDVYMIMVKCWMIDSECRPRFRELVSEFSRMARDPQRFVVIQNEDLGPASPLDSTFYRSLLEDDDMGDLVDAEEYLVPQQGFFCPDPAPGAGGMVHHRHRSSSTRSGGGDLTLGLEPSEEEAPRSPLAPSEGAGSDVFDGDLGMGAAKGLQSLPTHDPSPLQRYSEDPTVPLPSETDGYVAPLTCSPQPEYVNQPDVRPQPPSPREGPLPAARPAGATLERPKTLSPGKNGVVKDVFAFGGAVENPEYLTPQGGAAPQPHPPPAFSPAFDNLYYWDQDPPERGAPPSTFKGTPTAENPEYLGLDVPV
T3 sequence (P00533 25-1210): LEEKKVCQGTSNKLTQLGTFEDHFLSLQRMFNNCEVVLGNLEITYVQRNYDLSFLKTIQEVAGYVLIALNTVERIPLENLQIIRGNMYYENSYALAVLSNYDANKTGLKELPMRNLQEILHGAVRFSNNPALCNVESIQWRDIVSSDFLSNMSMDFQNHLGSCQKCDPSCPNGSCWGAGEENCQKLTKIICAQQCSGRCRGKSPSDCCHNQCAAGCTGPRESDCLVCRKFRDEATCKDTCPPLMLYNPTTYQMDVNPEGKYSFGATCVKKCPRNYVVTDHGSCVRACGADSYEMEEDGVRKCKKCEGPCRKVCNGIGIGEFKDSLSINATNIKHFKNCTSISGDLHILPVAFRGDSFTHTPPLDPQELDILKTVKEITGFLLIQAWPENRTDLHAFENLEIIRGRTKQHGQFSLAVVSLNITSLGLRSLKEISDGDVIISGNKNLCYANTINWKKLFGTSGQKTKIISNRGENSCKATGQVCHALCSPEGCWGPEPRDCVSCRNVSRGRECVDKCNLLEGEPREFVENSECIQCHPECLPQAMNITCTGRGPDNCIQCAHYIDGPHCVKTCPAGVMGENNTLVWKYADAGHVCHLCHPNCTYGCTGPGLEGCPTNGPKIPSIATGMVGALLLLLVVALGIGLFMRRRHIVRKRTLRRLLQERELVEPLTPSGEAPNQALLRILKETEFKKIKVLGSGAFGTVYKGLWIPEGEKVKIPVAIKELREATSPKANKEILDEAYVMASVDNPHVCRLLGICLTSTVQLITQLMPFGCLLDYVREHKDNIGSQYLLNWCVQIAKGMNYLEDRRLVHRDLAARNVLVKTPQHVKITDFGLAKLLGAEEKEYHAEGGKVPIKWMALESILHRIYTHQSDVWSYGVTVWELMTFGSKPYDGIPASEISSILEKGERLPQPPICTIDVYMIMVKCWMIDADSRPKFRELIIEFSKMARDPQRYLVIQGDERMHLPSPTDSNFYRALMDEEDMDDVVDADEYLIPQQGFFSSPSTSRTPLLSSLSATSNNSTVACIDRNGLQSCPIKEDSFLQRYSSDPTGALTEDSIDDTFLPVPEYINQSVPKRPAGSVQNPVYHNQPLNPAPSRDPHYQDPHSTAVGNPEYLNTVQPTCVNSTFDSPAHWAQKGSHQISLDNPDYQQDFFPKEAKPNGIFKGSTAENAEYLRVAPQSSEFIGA
T1 sequence (P00533 with tags, fused parts or gaps INS773NPH): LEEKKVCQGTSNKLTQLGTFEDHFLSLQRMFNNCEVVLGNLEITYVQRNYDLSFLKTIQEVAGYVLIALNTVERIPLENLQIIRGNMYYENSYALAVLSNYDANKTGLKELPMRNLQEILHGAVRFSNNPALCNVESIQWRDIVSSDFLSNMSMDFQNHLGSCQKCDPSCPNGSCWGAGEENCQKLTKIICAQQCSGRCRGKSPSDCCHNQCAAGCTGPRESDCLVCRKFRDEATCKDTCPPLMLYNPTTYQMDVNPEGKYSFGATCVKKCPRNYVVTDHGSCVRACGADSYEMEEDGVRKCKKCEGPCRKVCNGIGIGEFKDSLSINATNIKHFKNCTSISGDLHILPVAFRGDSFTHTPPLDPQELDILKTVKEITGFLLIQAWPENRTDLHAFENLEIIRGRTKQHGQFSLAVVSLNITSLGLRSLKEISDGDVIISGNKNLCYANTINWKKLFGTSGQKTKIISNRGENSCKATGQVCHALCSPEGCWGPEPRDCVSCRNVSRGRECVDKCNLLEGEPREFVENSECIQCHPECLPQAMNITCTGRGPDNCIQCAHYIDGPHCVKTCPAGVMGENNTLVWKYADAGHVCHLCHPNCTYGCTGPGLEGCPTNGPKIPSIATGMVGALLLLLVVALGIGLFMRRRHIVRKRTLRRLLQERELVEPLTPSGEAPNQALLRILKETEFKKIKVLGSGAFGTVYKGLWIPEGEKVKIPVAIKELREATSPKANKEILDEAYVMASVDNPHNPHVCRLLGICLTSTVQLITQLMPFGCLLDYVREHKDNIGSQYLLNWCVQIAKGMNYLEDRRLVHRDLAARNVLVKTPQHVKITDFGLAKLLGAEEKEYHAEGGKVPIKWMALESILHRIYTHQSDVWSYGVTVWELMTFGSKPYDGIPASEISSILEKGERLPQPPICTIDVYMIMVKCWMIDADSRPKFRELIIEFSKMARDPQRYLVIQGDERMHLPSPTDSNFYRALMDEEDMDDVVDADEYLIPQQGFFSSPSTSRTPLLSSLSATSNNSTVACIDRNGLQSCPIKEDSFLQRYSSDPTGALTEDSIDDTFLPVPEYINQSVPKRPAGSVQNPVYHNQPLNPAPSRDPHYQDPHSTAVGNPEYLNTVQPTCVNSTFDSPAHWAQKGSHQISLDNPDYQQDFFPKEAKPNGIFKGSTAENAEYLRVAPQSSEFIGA

C=CC(=O)Nc1cc(Nc2nccc(Nc3cc(Cl)c(F)cc3C(C)(C)O)n2)c(OC)cc1N1CC[C@@H](N(C)C)C1 [Form B, (R)-N-(5-((4-((5-chloro-4-fluoro-2-(2-hydroxypropan-2-yl)phenyl)amino)pyrimidin-2-yl)amino)-2-(3-(dimethylamino)pyrrolidin-1-yl)-4-methoxyphenyl)acrylamide]
GI50 [1]: 0.00423 µM | XRPD results of slurry in different water activity solvent ([2]; 0% water/acetone, water activity 0, 1 d): Form B | XRPD results of slurry in different water activity solvent ([2]; 0% water/acetone, water activity 0, 3 d): Form B | XRPD results of slurry in different water activity solvent ([2]; 0% water/acetone, water activity 0, 7 d): Form B | XRPD results of slurry in different water activity solvent ([2]; 3% water/acetone, water activity 0.312, 3 d): Form B | XRPD results of slurry in different water activity solvent ([2]; 3% water/acetone, water activity 0.312, 7 d): Form B | XRPD results of slurry in different water activity solvent ([2]; 30% water/acetone, water activity 0.747, 1 d): Form B | XRPD results of slurry in different water activity solvent ([2]; 30% water/acetone, water activity 0.747, 3 d): Form B | XRPD results of slurry in different water activity solvent ([2]; 30% water/acetone, water activity 0.747, 7 d): Form B | XRPD results of slurry in different water activity solvent ([2]; water, 7 d): Form B | IC50 [3]: 0.0352 µM | Form change after storage (XRPD, DSC) [4]: no form change observed | GI50 [5]: 0.0445 µM | IC50 [6]: 0.00207 µM | IC50 [7]: 0.0541 µM | Crystallinity after grinding (XRPD) ([8]; grinding): decreased | Crystal form after milling and grinding (XRPD, DSC) ([8]; grinding 1 min and 2 min, jet milling): unchanged | IC50 [9]: 0.00326 µM | Mean AUC0~48 ([10]; 25 mg/kg): 2678 ng·h/mL | Mean Cmax ([10]; 25 mg/kg): 299 ng/mL | Mean t1/2 ([10]; 25 mg/kg): 4.1 h | Median Tmax ([10]; 25 mg/kg): 8.0 h | Mean AUC0~48 ([10]; 75 mg/kg): 8433 ng·h/mL | Mean Cmax ([10]; 75 mg/kg): 672 ng/mL | Mean t1/2 ([10]; 75 mg/kg): 5.8 h | Median Tmax ([10]; 75 mg/kg): 4.0 h | GI50 [11]: 0.0459 µM | Solubility ([12]; Acetone): S < 5.88 mg/ml | Solubility ([12]; Acetonitrile): S < 0.97 mg/ml | Solubility ([12]; Ethyl acetate): S < 1.06 mg/ml | Solubility ([12]; Isopropanol): S ~ 4.677 mg/ml | Solubility ([12]; MTBE): S < 1.57 mg/ml | Solubility ([12]; MeOH): 24.00 < S mg/ml | Solubility ([12]; THF): 12.70 < S mg/ml | Solubility ([12]; water): S < 2.73 mg/ml | Stability of pure form during drying process ([13]; 50° C., vacuum, at least 2 days): stable | Relative stability of Form A and Form B in competitive slurry ([13]; 50° C., all the tested solvent systems except pure water): more stable than Form A | Relative stability of Form A and Form B in competitive slurry ([13]; tested solvent systems with water activity below 0.15, room temperature (24~27° C.)): dominant | DVS (ΔW %, 80% RH) [14]: 0.04% | GI50 [15]: 0.00145 µM | AUC0-24 h ([16]; Female (individual animals)): 3.14 hr*μM/(mg/kg) and 3.75 hr*μM/(mg/kg) | AUC0-24 h ([16]; Male (individual animals)): 2.88 hr*μM/(mg/kg) and 5.29 hr*μM/(mg/kg) | IC50 [17]: 0.00229 µM | solubility at 0.5 h ([18]; FaSSIF): 150 µg/mL (≈ 257 µM) | solubility at 2 h ([18]; FaSSIF, 2 h): 160 µg/mL (≈ 274 µM) | solubility at 24 h ([18]; FaSSIF, 24 h): 240 µg/mL (≈ 411 µM) | pH value at 24 h ([18]; FaSSIF): 6.43 | solubility at 0.5 h ([18]; FeSSIF): 3180 µg/mL (≈ 5440 µM) | Solubility ([18]; FeSSIF, 2 h): 2290 µg/mL (≈ 3920 µM) | solubility at 24 h ([18]; FeSSIF, 24 h): 11200 µg/mL (≈ 19200 µM) | pH value at 24 h ([18]; FeSSIF): 5.50 | solubility at 0.5 h ([18]; SGF, simulated gastric fluid): 23500 µg/mL (≈ 40300 µM) | solubility at 2 h ([18]; SGF, simulated gastric fluid, 2 h): 24200 µg/mL (≈ 41400 µM) | solubility at 24 h ([18]; SGF, simulated gastric fluid, 24 h): 25800 µg/mL (≈ 44100 µM) | pH value at 24 h ([18]; SGF): 5.15 | solubility at 0.5 h ([18]; SIF, fassgf or other biorelevant): 18 µg/mL (≈ 30.8 µM) | solubility at 2 h ([18]; SIF, fassgf or other biorelevant, 2 h): 25 µg/mL (≈ 42.8 µM) | Solubility ([18]; SIF, 24 h): 520 µg/mL (≈ 890 µM) | pH value at 24 h ([18]; SIF): 6.67 | GI50 [19]: 0.0663 µM
